The values that follow come from patent US20090042987A1, “TREATMENT OF NEUROPATHIC PAIN” (priority 2007, published 2009).

SMILES strings stand for the structures.

This assay deals with STZ-diabetic rats. Put plainly: von Frey paw withdrawal thresholds, STZ-diabetic rats given multiple dosing regimens (washout protocol), Example 1. The format is in vivo, rat. As for the experimental part:
Experimental Animals Ethical approval for this study was obtained from the Animal Experimentation Ethics Committee of The University of Queensland. Adult male Sprague-Dawley (SD) rats (222±4 g) were used for this study. Rats were housed in a temperature controlled room (21+2.0 C) with a 12/12 hour light/dark cycle. Food and water were available ad libitum. Initiation of drug administration occurred at 8-11 weeks post-STZ administration for rats in Experiment 1 (PCT-001) and at 10-12 weeks post-STZ administration for rats in Experiment 2 (PCT-007).
Test Article Tranilast was supplied by the Sponsor and stored at −4° C. until use. Gabapentin (100 mg/kg, dissolved in water for injection) was utilized as the positive control for this study.
Test Article and Vehicle Preparation Test article formulations were prepared freshly on the day of administration by weighing the appropriate amount of bulk powder and suspending it in the required volume of vehicle. Carboxymethyl cellulose ((CMC) 0.5% in water for injection) was utilized as the vehicle for this study.
Test Article Administration. […] The maximum oral gavage volume administered in this study was […]. 4.4
STZ-Diabetic Rat Model of Painful Diabetic Neuropathy. Painful diabetic neuropathy is a common long-term complication of diabetes in humans that develops as a result of a sustained biochemical nerve injury. […] Following the induction of diabetes with intravenous STZ at 70-80 mg/kg, it generally takes 6-8 wks for tactile allodynia, the defining symptom of PDN, to fully develop in both rat hindpaws.
Induction of STZ-Diabetes in Rats. On day 0, rats were anaesthetized with 3% isoflurane:97% O2 and a short polyethylene cannula (0.5 mm ID, 0.8 mm OD) was inserted into the jugular vein to facilitate the intravenous (i.v.) administration of a single dose of streptozotocin (STZ: 70-80 mg/kg). After STZ injection, the cannula was removed and the jugular vein was tied off and the wound was closed. Rats received subcutaneous benzylpenicillin (60 mg) prior to surgery to prevent infection and were kept warm during surgical recovery. Rats were housed singly prior to further experimentation and were monitored daily from the time of STZ administration with regard to general health and well-being.
Von Frey Assessment of Paw Withdrawal Thresholds. Calibrated von Frey filaments were used to determine the lowest mechanical threshold required to evoke a brisk paw withdrawal reflex in the rat hindpaws. Briefly, rats were transferred individually to wire mesh testing cages (20 cm×20 cm×20 cm) and allowed to acclimatize for approximately 10-20 min prior to von Frey testing. Commencing with the von Frey filament that produced the 6 g force, the filament was applied to the plantar surface of the hindpaw until the filament buckled slightly. Absence of a response after 3 s prompted use of the next filament of increasing weight. A withdrawal response within 3 s prompted use of the next filament of decreasing weight. Filaments used produced buckling weights of 2, 4, 6, 8, 10, 12, 14, 16, 18 and 20 g. […] Tactile allodynia is regarded as being fully developed when von Frey PWTs in the injured hindpaws are <6 g.
Restoring von-Frey PWTs in the hindpaws from <6 g to pre-STZ surgery levels (12±2 g) is the treatment goal representing full reversal of tactile allodynia. If drug treatment increases PWTs above pre-surgical baseline values (i.e. >12±2 g), such a response is classified as antinociception. Before administration of STZ, baseline von Frey measurements were assessed. Following STZ administration, baseline PWTs were assessed in the hindpaws at week 8-11 to confirm the development of diabetes-induced tactile allodynia. […]

For the molecule `COc1ccc(/C=C/C(=O)Nc2ccccc2C(=O)O)cc1OC` [Tranilast, 2-[[3-(3,4-dimethoxyphenyl)-1-oxo-2-propenyl]amino]benzoic acid], under “tranilast 300 mg/kg oral, 7th twice-daily dose, 1.5 h post-dosing”, the “Mean (±SEM) PWT at the mean time of peak response” value is 9.8 (±1.1) g. Further, the “Time of peak anti-allodynia post-dosing” value (tranilast 300 mg/kg oral, 7th twice-daily dose, multiple dosing regimens) was in the range of 1 to 1.5 h. For the same molecule, the “Mean (±SEM) PWT pre-dose” value (tranilast 300 mg/kg oral, 7th twice-daily dose, pre-dose) is 5.1 (±0.4) g. For the same molecule, the “Anti-allodynia in the hindpaws” value (tranilast 30, 100, 200, 300 mg/kg oral, 7 consecutive twice-daily doses, multiple dosing regimens) is given as “significant anti-allodynia was produced only by the 300 mg/kg dosing regimen”. The “Relief of tactile allodynia, dose dependence” value (tranilast 100-300 mg/kg oral, 7 consecutive twice-daily doses, up to 5 dosing regimens, 2-3 day washout) was “dose-dependent relief of tactile allodynia”.
